In patent publication US11339144B2 (Navitor Pharmaceuticals, Inc., priority 2017, dated 2022):

Molecular target: HA-GST-Rheb (GTP-γ-S loaded) activating mTORC1 (Homo sapiens (Human), UniProt Q15382)
Assay: Rheb-dependent in vitro kinase assay (Rheb-IVK; LanthaScreen or Western readout)
Type: biochemical
Conditions: Rheb-dependent in vitro kinase assay; read-out: IVK IC50

HA-GST-Rheb (GTP-γ-S loaded) activating mTORC1, sequence (Q15382 1-181): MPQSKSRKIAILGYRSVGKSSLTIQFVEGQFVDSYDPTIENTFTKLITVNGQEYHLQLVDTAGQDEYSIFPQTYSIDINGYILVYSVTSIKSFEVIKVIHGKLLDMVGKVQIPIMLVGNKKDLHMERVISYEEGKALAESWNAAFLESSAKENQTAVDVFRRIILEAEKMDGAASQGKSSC

SMILES | IC50 [µM]
CCCn1c(CO)nc2cc(OCc3ccccc3)c(Cl)cc21 [I-479] | > 100
OCc1cc2c(C3CCNCC3)cc(Oc3ccccc3)cc2[nH]1 [I-199] | > 100
Cn1ccc2c(Sc3ccc(Cl)cc3)cc(Cl)cc21 [I-205] | > 100
Clc1ccc(Cc2cccc3[nH]ccc23)cc1 [I-179] | > 100
CCn1c(CO)nc2cc(Cl)c(Oc3ccccc3)cc21 [I-456] | > 100
Cn1ccc2c(Oc3ccc(F)cc3)cccc21 [I-265] | > 100
OCc1nc2c(Oc3ccccc3)cc(Cl)cc2[nH]1 [I-404] | > 100
c1ccc(Oc2cccc3nc(-c4ncco4)n(Cc4ccc(-c5nn[nH]n5)cc4)c23)cc1 [I-422] | > 100
OCc1nc2c(OC[C@H]3CCCC[C@@H]3O)c(Cl)c(Cl)cc2n1Cc1cc(Cl)ccc1Cl [I-393] | > 100
CCn1c(CO)nc2cc(Cl)c(OCc3ccc(Cl)cc3)cc21 [I-450] | > 100
CCn1c(CO)nc2c(Cl)cc(OCc3ccccc3)cc21 [I-413] | > 100
[O-][S+](c1ccccc1)c1cc(Br)c2cc(CO)[nH]c2c1 (centres unmarked) [I-229] | > 100
Cn1c(CO)cc2c(Oc3ccccc3F)cccc21 [I-274] | > 100
Clc1ccc(Sc2cc(Sc3ccc(Cl)cc3)c3cc[nH]c3c2)cc1 [I-200] | > 100
Clc1ccc(Sc2cccc3[nH]ccc23)cc1Cl [I-211] | > 100
O=S(=O)(c1ccccc1Cl)c1cccc2[nH]ccc12 [I-232] | > 100
OCc1cc2c(Br)cc(Oc3ccccc3)cc2n1Cc1ccc(-c2nn[nH]n2)cc1 [I-221] | > 100
N#Cc1cccc(Cn2c(-c3ncco3)nc3cc(Cl)c(Cl)cc32)c1 [I-463] | > 100

SMILES | IC50 [µM]
Cn1c(CO)cc2c(OCc3ccccc3)cc(Cl)cc21 [I-292] | > 100
CCn1c(CO)nc2cc(Cl)c(OCc3cccc(Cl)c3)cc21 [I-448] | > 100
CCn1c(CO)nc2cc(OCc3ccccc3)c(Cl)cc21 [I-487] | > 100
OCc1cc2c(OCc3ccccc3)cc(Cl)cc2[nH]1 [I-294] | > 100
OCc1nc2cc(OCCc3ccccc3)c(Cl)cc2[nH]1 [I-483, (6-chloro-5-phenethoxy-1H-benzo[d]imidazol-2-yl)methanol] | 300 to 800
OCc1nc2c(Br)cc(Oc3ccccc3)cc2n1Cc1nc[nH]n1 [I-406] | > 100
N#CCc1nc2c(Oc3ccccc3)cccc2[nH]1 [I-471] | > 100
OCc1nc2c(OCC3CCCO3)c(Cl)c(Cl)cc2[nH]1 (centres unmarked) [I-400, (5,6-dichloro-4-((tetrahydrofuran-2-yl)methoxy)-1H-benzo[d]imidazol-2-yl) methanol bis (2,2,2-trifluoroacetate)] | 100 to 300
OCc1nc2cc(Cl)c(OCc3ccccc3)cc2n1CC(F)(F)F [I-458] | > 100
CCn1c(CO)nc2ccc(OCc3ccccc3)cc21 [I-417] | > 100
CCn1c(CO)nc2cc(Oc3ccccc3)c(Cl)cc21 [I-455] | > 100
Cn1c(CO)nc2c(OC[C@H]3CCCC[C@@H]3O)c(Cl)c(Cl)cc21 (racemic) [I-387, (+,−)-trans-2-((5,6-dichloro-2-(hydroxymethyl)-1-methyl-1H-benzo[d]imidazol-4-yloxy)methyl)cyclohexanol] | 100 to 300
COc1cccc(Sc2cccc3[nH]ccc23)c1 [I-195] | > 100
N#Cc1cccc(COc2c(Cl)c(Cl)cc3[nH]c(CO)nc23)c1 [I-459] | > 100
Cn1cc(-c2cc(Oc3ccccc3)cc3[nH]c(CO)cc23)cn1 [I-227] | > 100
OCc1nc2cc(OCc3cccc(Cl)c3)c(Cl)cc2[nH]1 [I-478, (5-chloro-6-(3-chlorobenzyloxy)-1H-benzo[d]imidazol-2-yl)methanol] | 300 to 800
O=C1CCCC(COc2c(Cl)c(Cl)cc3[nH]c(CO)nc23)N1 (centres unmarked) [I-465, 6-((5,6-dichloro-2-(hydroxymethyl)-1H-benzo[d]imidazol-4-yloxy)methyl)piperidin-2-one] | 100 to 300
